In EP4678638A1, “NEW E3 UBIQUITIN LIGASE LIGAND, PROTEIN DEGRADATION AGENT AND USE THEREOF” (priority 2023, dated 2024):
Where two headings read alike, the source gives them in different places.

What was measured:
[1] = target: T1, CDK4 (Homo sapiens, UniProt P11802); experiment: Western blot degradation of CDK4 (MDA-MB-231 Cell); assay type: cell-based; details: Table D3
T1 construct: evaluate the effects of the compounds of the present disclosure on the expression of target proteins in cells; endogenous in cells; host or cells: MDA-MB-231
T1 sequence (P11802 whole entry): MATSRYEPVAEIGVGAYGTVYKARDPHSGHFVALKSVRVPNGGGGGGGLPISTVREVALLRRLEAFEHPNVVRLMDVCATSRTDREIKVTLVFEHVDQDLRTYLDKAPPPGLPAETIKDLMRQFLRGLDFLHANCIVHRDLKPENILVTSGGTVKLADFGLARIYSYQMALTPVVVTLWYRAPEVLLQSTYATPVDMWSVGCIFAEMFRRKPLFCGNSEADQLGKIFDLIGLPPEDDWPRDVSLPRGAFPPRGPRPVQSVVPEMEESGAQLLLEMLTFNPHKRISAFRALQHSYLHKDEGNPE
Description: (§1) Conventional Western blot assay was performed to evaluate the effects of the compounds of the present disclosure on the expression of target proteins in cells.
(§2) (1) Cell Seeding and Protein Harvesting: The selected cells were processed according to the cell seeding procedure and protein harvesting procedure in Table III-2. Table III-2 Cell Seeding and Protein Harvesting Procedures
(§3) (2) To the collected supernatant, 5X SDS sample loading buffer was added, followed by denaturation at 95°C for 5 minutes. The denatured samples were then separated by SDS-PAGE electrophoresis on a polyacrylamide gel. Proteins were transferred to a nitrocellulose membrane (0.45 µm NC membrane), blocked with blocking buffer at room temperature for 1 hour, and subjected to antibody incubation and development procedures according to the antibody manufacturer's instructions (Cell Signaling Technology).
(§4) Half-Maximal Degradation Concentration value (the drug concentration required for degrading proteins by 50%, abbreviated as DC50) reads method: comparing the grayscale values of Western blot bands from drug-treated samples with those from blank DMSO-treated controls, and identifying the drug concentration range at which the grayscale value is half that of the DMSO-treated control bands.
(§5) DC50 values can be calculated using ImageJ software to measure grayscale values of Western blot bands from drug-treated samples. The concentration-response curve is fitted to estimate the drug concentration corresponding to half the grayscale value.
(§6) Target protein remaining (%) refers to the percentage of target protein remaining in hPBMC cells after treatment with protein degrader compounds.
(§7) Calculation method for target protein remaining (%): Use ImageJ software to measure grayscale values of Western blot bands from drug (protein degrader)-treated samples. The grayscale value of drug-treated bands is divided by that of internal control protein bands, and the resulting quotient is normalized to obtain the relative percentage of remaining target protein after protein degrader treatment.
(§8) Target protein degradation rate (%) = 100% - target protein remaining (%).

[2] = target: T2, CDK6 (Homo sapiens, UniProt Q00534); experiment: Western blot degradation of CDK6 (MDA-MB-231 Cell); assay type: cell-based; details: Table D3
T2 construct: evaluate the effects of the compounds of the present disclosure on the expression of target proteins in cells; endogenous in cells; host or cells: MDA-MB-231
T2 sequence (Q00534 whole entry): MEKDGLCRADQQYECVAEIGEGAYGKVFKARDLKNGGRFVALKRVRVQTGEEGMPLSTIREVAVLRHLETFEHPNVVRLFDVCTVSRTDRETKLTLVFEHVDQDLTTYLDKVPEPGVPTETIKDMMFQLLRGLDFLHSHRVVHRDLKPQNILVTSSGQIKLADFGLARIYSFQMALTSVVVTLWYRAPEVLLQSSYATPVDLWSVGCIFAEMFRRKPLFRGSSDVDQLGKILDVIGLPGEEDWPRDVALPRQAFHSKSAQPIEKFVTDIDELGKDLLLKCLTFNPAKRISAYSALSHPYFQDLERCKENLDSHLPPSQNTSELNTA
Description: as §1, §2, §3, §4, §5, §6, §7, §8

[3] = test system: PC-9; experiment: CCK-8 proliferation, PC-9; assay type: cell-based, Human; details: Homo sapiens, PC-9; CCK-8; 96 hours; read-out: Inhibitory activity (IC50) on tumor cell proliferation, PC-9
Description: (§9) The tumor cells used herein were cultured in a cell culture medium listed in table A1 at 37°C in an incubator with 5% CO2. Prior to experimentation, all cell lines used were correctly identified by STR profiling, and tested negative for mycoplasma contamination using a mycoplasma detection kit through routine screenings. Table A1. Tumor cells and cell culture medium used in the present disclosure
(§10) IC50 values of the compounds of the present disclosure (including the compounds in Table 1, and compounds of examples) were measured using the Meilun Cell Counting Kit-8 kit from Dalian Meilun Biotech Co., Ltd. Assay details are as follows: tumor cells were seeded in a 96-well plate at a density listed in Table A2. After 24h, 100 µL of the inoculated cells were treated with 0.5µL of the compounds of the present disclosure (including the compounds in Tables 1 and 2, and compounds of examples) at 10 different successively decreasing concentrations (starting at the highest concentration of 10µM; 5-fold serial dilutions). After the cells were treated with the compounds of the present disclosure for a period of time, the cell viability detection reagent was added to the culture medium for cell viability assessment according to the instructions provided with the CCK-8 kit. […] The growth inhibition of the compounds of the present disclosure on cells was plotted by Prism Graphpad software, and the IC50 values of the compounds of the present disclosure were calculated therefrom. […] Seeding protocol and treatment time for tumor cells

[4] = test system: H2228; experiment: CCK-8 proliferation, NCI-H2228 (H2228); assay type: cell-based; details: Homo sapiens, NCI-H2228; CCK-8; 96 hours; read-out: Inhibitory activity (IC50) on tumor cell proliferation, H2228
Procedure, shortened: (§11)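 CCK-8 viability readout; IC50 from growth-inhibition curve fitting. Cells plated, dosed 24h later with a 10-point series, top 10µM, 5-fold steps. Culture at 37°C, 5% CO2.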

[5] = test system: MV-4-11; experiment: CCK-8 proliferation, MV-4-11; assay type: cell-based, Human; details: Homo sapiens, MV4-11
Description: as §9, §10

[6] = test system: CCRF-CEM; experiment: CCK-8 proliferation, CCRF-CEM; assay type: cell-based, Human; details: Homo sapiens, CCRF-CEM; CCK-8; 96 hours; read-out: Inhibitory activity (IC50) on tumor cell proliferation, CCRF-CEM
Description: as §9, §10

[7] = test system: H1975; experiment: CCK-8 proliferation, NCI-H1975 (H1975); assay type: cell-based, Human; details: Homo sapiens, NCI-H1975; CCK-8; 96 hours; read-out: Inhibitory activity (IC50) on tumor cell proliferation, H1975
Procedure, shortened: as §11

[8] = test system: SR; experiment: CCK-8 proliferation, SR; assay type: cell-based, Human; details: Homo sapiens; Table B10, compounds designed based on the IRAK4 inhibitors; SR cells; read-out: Inhibitory activity (IC50, nM) on tumor cell proliferation, SR
Procedure, shortened: as §11

[9] = CCK-8, 72 or 96 hours, read-out: Inhibitory activity (IC50) on tumor cell proliferation, MV-4-11

| Structure (SMILES) | IC50 [3] [µM] | IC50 [4] [µM] | IC50 [7] [µM] | also measured |
| --- | --- | --- | --- | --- |
| CN(C)C(=O)c1cc2cnc(Nc3ccc(N4CCN(Cc5ccc(C6CCC(=O)NC6=O)cc5)CC4)cn3)nc2n1C1CCCC1 (stereo not shown) [GT-06339, 7-cyclopentyl-2-((5-(4-(4-(2,6-dioxopiperidin-3-yl)benzyl)piperazin-1-yl)pyridin-2-yl)amino)-N,N-dimethyl-7H-pyrrolo[2,3-d]pyrimidine-6-carboxamide] |  |  |  | Degradation of substrate protein CDK4 (substrate protein remaining %) [1]: A (A is defined as 0% ≤ substrate protein remaining % ≤ 80%); Degradation of substrate protein CDK6 (substrate protein remaining %) [2]: A (A is defined as 0% ≤ substrate protein remaining % ≤ 80%) |
| CC(=O)c1c(C)c2cnc(Nc3ccc(N4CCN(Cc5ccnc(N6CCC(=O)NC6=O)c5)CC4)cn3)nc2n(C2CCCC2)c1=O [GT-07481, 1-(4-((4-(6-((6-acetyl-8-cyclopentyl-5-methyl-7-oxo-7,8-dihydropyrido[2,3-d]pyrimidin-2-yl)amino)pyridin-3-yl)piperazin-1-yl)methyl)pyridin-2-yl)dihydropyrimidine-2,4(1H,3H)-dione] |  |  |  | Degradation of substrate protein CDK4 (substrate protein remaining %) [1]: A (A is defined as 0% ≤ substrate protein remaining % ≤ 80%); Degradation of substrate protein CDK6 (substrate protein remaining %) [2]: A (A is defined as 0% ≤ substrate protein remaining % ≤ 80%) |
| CN(C)C(=O)c1cc2cnc(Nc3ccc(N4CCN(Cc5ccc(N6CCC(=O)NC6=O)nc5)CC4)cn3)nc2n1C1CCCC1 [GT-06343, 7-cyclopentyl-2-((5-(4-((6-(2,4-dioxotetrahydropyrimidin-1(2H)-yl)pyridin-3-yl)methyl)piperazin-1-yl)pyridin-2-yl)amino)-N,N-dimethyl-7H-pyrrolo[2,3-d]pyrimidine-6-carboxamide] |  |  |  | Degradation of substrate protein CDK4 (substrate protein remaining %) [1]: A (A is defined as 0% ≤ substrate protein remaining % ≤ 80%); Degradation of substrate protein CDK6 (substrate protein remaining %) [2]: A (A is defined as 0% ≤ substrate protein remaining % ≤ 80%) |
| Nc1nc(Nc2ccc(S(=O)(=O)N3CCN(Cc4ccc(N5CCC(=O)NC5=O)cc4)CC3)cc2)nn1C(=O)c1c(F)cccc1F [GT-06751, 1-(4-((4-((4-((5-amino-1-(2,6-difluorobenzoyl)-1H-1,2,4-triazol-3-yl)amino)phenyl)sulfonyl)piperazin-1-yl)methyl)phenyl)dihydropyrimidine-2,4(1H,3H)-dione] |  |  |  | IC50 [5, 9]: 500 to 1000 nM; IC50 [6]: 0.5 to 1 µM |
| NC(=O)c1ncc(N2CCCCC2)nc1Nc1ccc(C2CCN(Cc3ccc(C4CCC(=O)NC4=O)c(F)c3)CC2)cc1 (stereo not shown) [GT-04786, 3-((4-(1-(4-(2,6-dioxopiperidin-3-yl)-3-fluorobenzyl)piperidin-4-yl)phenyl)amino)-5-(piperidin-1-yl)pyrazine-2-carboxamide] | 0.5 to 1 | 0.1 to 0.5 | 0.5 to 1 |  |
| Nc1nc(Nc2ccc(S(=O)(=O)N3CCN(Cc4ccc(N5CCC(=O)NC5=O)nc4)CC3)cc2)nn1C(=O)c1c(F)cccc1F [GT-06754, 1-(5-((4-((4-((5-amino-1-(2,6-difluorobenzoyl)-1H-1,2,4-triazol-3-yl)amino)phenyl)sulfonyl)piperazin-1-yl)methyl)pyridin-2-yl)dihydropyrimidine-2,4(1H,3H)-dione] |  |  |  | IC50 [5, 9]: 500 to 1000 nM; IC50 [6]: 0.5 to 1 µM |
| NC(=O)c1ncc(N2CCCCC2)nc1Nc1ccc(C2CCN(Cc3ccc(N4CCC(=O)NC4=O)c(F)c3)CC2)cc1 [GT-04788, 3-((4-(1-(4-(2,4-dioxotetrahydropyrimidin-1(2H)-yl)-3-fluorobenzyl)piperidin-4-yl)phenyl)amino)-5-(piperidin-1-yl)pyrazine-2-carboxamide] | 0.1 to 0.5 | 0.1 to 0.5 | 0.5 to 1 |  |
| Cc1cc(S(=O)(=O)N2CCN(Cc3ccc(N4CCC(=O)NC4=O)cn3)CC2)ccc1Nc1ncc(Br)c(Nc2cccc(F)c2C(N)=O)n1 [GT-06833, 2-((5-bromo-2-((4-((4-((5-(2,4-dioxotetrahydropyrimidin-1(2H)-yl)pyridin-2-yl)methyl)piperazin-1-yl)sulfonyl)-2-methylphenyl)amino)pyrimidin-4-yl)amino)-6-fluorobenzamide] |  |  |  | IC50 [5, 9]: 50 to 100 nM |
| Cc1ccsc1C(=O)n1nc(Nc2ccc(S(=O)(=O)N3CCN(Cc4ccc(N5CCC(=O)NC5=O)cc4F)CC3)cc2)nc1N [GT-06858, 1-(4-((4-((4-((5-amino-1-(3-methylthiophene-2-carbonyl)-1H-1,2,4-triazol-3-yl)amino)phenyl)sulfonyl)piperazin-1-yl)methyl)-3-fluorophenyl)dihydropyrimidine-2,4(1H,3H)-dione] |  |  |  | IC50 [5, 9]: 100 to 500 nM |
| O=C1CCC(c2ccc(CN3CCC(n4cc(NC(=O)c5cnn6ccc(N7CCOCC7)nc56)c(C(F)F)n4)CC3)cc2)C(=O)N1 (stereo not shown) [GT-03813, N-(3-(difluoromethyl)-1-(1-(4-(2,6-dioxopiperidin-3-yl)benzyl)piperidin-4-yl)-1H-pyrazol-4-yl)-5-morpholinopyrazolo[1,5-a]pyrimidine-3-carboxamide] |  |  |  | IC50 [8]: 100 to 500 nM; IC50 ([5]; Table B10, compounds designed based on the IRAK4 inhibitors, MV-4-11 cells, read-out: Inhibitory activity (IC50, nM) on tumor cell proliferation, MV-4-11): 100 to 500 nM |

Further lines, with some results ahead:

| IC50 [3] [µM] | IC50 [4] [µM] | IC50 [7] [µM] | Structure (SMILES) | also measured |
| --- | --- | --- | --- | --- |
| 0.5 to 1 | 0.5 to 1 |  | CN1CCN([C@@H]2CCCN(c3cnc(C(N)=O)c(Nc4ccc(C5CCN(Cc6ccc(C7CCC(=O)NC7=O)c(F)c6)CC5)cc4)n3)C2)C1=O (stereo partly drawn) [GT-04799, 3-((4-(1-(4-(2,6-dioxopiperidin-3-yl)-3-fluorobenzyl)piperidin-4-yl)phenyl)amino)-5-((R)-3-(3-methyl-2-oxoimidazolidin-1-yl)piperidin-1-yl)pyrazine-2-carboxamide] |  |
| 0.1 to 0.5 | 0.1 to 0.5 | 0.5 to 1 | CN1CCN([C@@H]2CCCN(c3cnc(C(N)=O)c(Nc4ccc(C5CCN(Cc6ccc(N7CCC(=O)NC7=O)c(F)c6)CC5)cc4)n3)C2)C1=O [GT-04801, (R)-3-((4-(1-(4-(2,4-dioxotetrahydropyrimidin-1(2H)-yl)-3-fluorobenzyl)piperidin-4-yl)phenyl)amino)-5-(3-(3-methyl-2-oxoimidazolidin-1-yl)piperidin-1-yl)pyrazine-2-carboxamide] |  |
| 0.1 to 0.5 | 0.5 to 1 | 0.5 to 1 | CN1CCN([C@@H]2CCCN(c3cnc(C(N)=O)c(Nc4ccc(C5CCN(Cc6ccc(C7CCC(=O)NC7=O)cc6)CC5)cc4)n3)C2)C1=O (stereo partly drawn) [GT-04798, 3-((4-(1-(4-(2,6-dioxopiperidin-3-yl)benzyl)piperidin-4-yl)phenyl)amino)-5-((R)-3-(3-methyl-2-oxoimidazolidin-1-yl)piperidin-1-yl)pyrazine-2-carboxamide] |  |
| 0.1 to 0.5 | 0.1 to 0.5 | 0.5 to 1 | NC(=O)c1ncc(N2CCCCC2)nc1Nc1ccc(C2CCN(Cc3ccc(N4CCC(=O)NC4=O)cc3)CC2)cc1 [GT-04789, 3-((4-(1-(4-(2,4-dioxotetrahydropyrimidin-1(2H)-yl)benzyl)piperidin-4-yl)phenyl)amino)-5-(piperidin-1-yl)pyrazine-2-carboxamide] |  |
